Laboratory results as given in ChEMBL document CHEMBL1147797, “Construction of human ghrelin receptor (hGHS-R1a) model using a fragmental prediction approach and validation through docking analysis” (J Med Chem, 2006).

Target: Growth hormone secretagogue receptor type 1 (Homo sapiens, UniProt Q92847)
Test: Activity at human GHS-R1a receptor in rat pituitary cells assessed as GH release
Assay type: cell-based, Pituitary gland cell

Sequence of Growth hormone secretagogue receptor type 1 (Q92847 whole entry): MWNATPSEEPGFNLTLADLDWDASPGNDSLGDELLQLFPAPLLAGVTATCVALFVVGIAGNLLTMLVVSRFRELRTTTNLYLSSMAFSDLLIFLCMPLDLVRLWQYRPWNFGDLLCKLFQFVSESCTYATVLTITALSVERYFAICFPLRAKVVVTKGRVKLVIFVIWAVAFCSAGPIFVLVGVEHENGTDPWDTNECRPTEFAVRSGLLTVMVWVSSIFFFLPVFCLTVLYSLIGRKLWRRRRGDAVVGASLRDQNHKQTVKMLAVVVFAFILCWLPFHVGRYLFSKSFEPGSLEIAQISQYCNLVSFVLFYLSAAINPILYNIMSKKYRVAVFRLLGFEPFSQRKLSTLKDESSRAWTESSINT

SMILES | EC50 [nM]
CC(C)(N)C(=O)N[C@H](CCCc1ccccc1)C(=O)N1CCC2(CC1)CSc1ccccc12 | 4.8
CC(C)(N)C(=O)N[C@H](Cc1c[nH]c2ccccc12)C(=O)N1CCC2(CC1)CSc1ccccc12 | 5.6
CC(C)(N)C(=O)N[C@H](Cc1c[nH]c2ccccc12)C(=O)N1CCC2(CC1)CS(=O)(=O)c1ccccc12 | 2.1
CC(C)(N)C(=O)N[C@H](COCc1ccccc1)C(=O)N1CCC2(CC1)CSc1ccccc12 | 10
CC(C)(N)C(=O)N[C@H](COCc1ccccc1)C(=O)N1CCC2(CC1)C[S+]([O-])c1ccccc12 (stereo partly drawn) | 8.5
CC(C)(N)C(=O)N[C@H](CCCc1ccccc1)C(=O)N1CCC2(CC1)C[S+]([O-])c1ccccc12 (stereo partly drawn) | 2.5
CC(C)(N)C(=O)N[C@H](CCCc1ccccc1)C(=O)N1CCC2(CC1)CS(=O)(=O)c1ccccc12 | 1.1
CC(C)(N)C(=O)N[C@H](CCCc1ccccc1)C(=O)N1CCC2(CC1)COc1ccccc12 | 2.7
CC(C)(N)C(=O)N[C@H](COCc1ccccc1)C(=O)N1CCC2(CC1)COc1ccccc12 | 8.5
CC(C)(N)C(=O)N[C@H](CCc1ccccc1)C(=O)N1CCC2(CC1)CS(=O)(=O)c1ccccc12 | 6
CC(C)(N)C(=O)N[C@H](CCc1ccccc1)C(=O)N1CCC2(CC1)CSc1ccccc12 | 57
CC(C)(N)C(=O)N[C@H](COCc1ccccc1)C(=O)N1CCC2(CC1)CS(=O)(=O)c1ccccc12 | 5
CC(C)(N)C(=O)N[C@H](Cc1c[nH]c2ccccc12)C(=O)N1CCC2(CC1)C[C@@H](O)c1ccccc12 | 0.6
CNC(C)(C)C/C=C/C(=O)N(C)[C@H](Cc1ccc2ccccc2c1)C(=O)N(C)Cc1ccccc1 | 3
CCN1N=C2CCN(C(=O)[C@@H](COCc3ccccc3)NC(=O)C(C)(C)N)C[C@]2(Cc2ccccc2)C1=O | 4
CN1N=C2CCN(C(=O)[C@@H](COCc3ccccc3)NC(=O)C(C)(C)N)C[C@]2(Cc2ccccc2)C1=O | 3
CCNC(=O)[C@@]1(Cc2ccccc2)CCCN(C(=O)[C@@H](Cc2c[nH]c3ccccc23)NC(=O)C(C)(C)N)C1 | 0.8

SMILES | EC50 [nM]
CC(C)(N)C(=O)N[C@H](CCCc1ccccc1)C(=O)N1CCC2(CCc3ccccc32)CC1 | 10
CC(C)(N)C(=O)N[C@@H]1CCc2ccccc2N(Cc2ccc(-c3ccccc3CNC(=O)NCCO)cc2)C1=O | 2
CCNC(=O)NCc1ccccc1-c1ccc(CN2C(=O)[C@H](NC(=O)C(C)(C)N)CCc3ccccc32)cc1 | 6
CNC(C)(C)C/C=C/C(=O)N(C)[C@H](Cc1ccc2ccccc2c1)C(=O)N(C)CCc1ccccc1OCCO | 5
CNC(C)(C)C/C=C/C(=O)N(C)[C@H](Cc1ccc2ccccc2c1)C(=O)N(C)CCc1cccs1 | 0.8
CN(CCc1cccs1)C(=O)[C@@H](Cc1ccc(-c2ccccc2)cc1)N(C)C(=O)/C=C/CC(C)(C)N | 5
CN(CCc1ccccc1NS(C)(=O)=O)C(=O)[C@@H](Cc1ccc2ccccc2c1)N(C)C(=O)/C=C/CC(C)(C)N | 18
CC(C)(N)C(=O)N[C@H](COCc1ccccc1)C(=O)N1CCC2=NNC(=O)[C@@]2(Cc2ccccc2)C1 | 3
CN(CCc1cccs1)C(=O)[C@@H](Cc1ccc2ccccc2c1)N(C)C(=O)/C=C/CC(C)(C)N | 7.5
CC(C)(N)C(=O)N[C@H](COCc1ccccc1)C(=O)N1CCC2(CCc3ccccc32)CC1 | 17
CCOC(=O)[C@@]1(Cc2ccccc2)CCCN(C(=O)[C@@H](Cc2c[nH]c3ccccc23)NC(=O)C(C)(C)N)C1 | 1.6
CN(CCc1ccccc1OCCO)C(=O)[C@@H](Cc1ccc2ccccc2c1)N(C)C(=O)/C=C/CC(C)(C)N | 5
CNC(=O)NCc1ccccc1-c1ccc(CN2C(=O)[C@H](NC(=O)C(C)(C)N)CCc3ccccc32)cc1 | 1
CC(C)(N)C(=O)N[C@H](CCc1ccccc1)C(=O)N1CCC2(CCc3ccccc32)CC1 | 22
CC(C)(N)C(=O)N[C@H](Cc1c[nH]c2ccccc12)C(=O)N1CCC2(CCc3ccccc32)CC1 [L-162752] | 14
CNC(=O)[C@@H](Cc1ccccc1)N(C)C(=O)[C@@H](Cc1ccc2ccccc2c1)N(C)C(=O)/C=C/CC(C)(C)N [TABIMORELIN] | 3
